From the supplement of paper PMC10307832

Key:
Experiment in all cases: relative viability (nuclei count vs DMSO), 5 days (fraction); higher = more cells survive
Midostaurin + Bortezomib = compound: CO[C@@H]1[C@H](N(C)C(=O)c2ccccc2)C[C@H]2O[C@]1(C)n1c3ccccc3c3c4c(c5c6ccccc6n2c5c31)C(=O)NC4 [Midostaurin] + CC(C)C[C@H](NC(=O)[C@H](Cc1ccccc1)NC(=O)c1cnccn1)B(O)O [Bortezomib] (partner 0.002 µM)
In short: (§1)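 Relative viability equals treated-well nuclei counts divided by vehicle-well nuclei counts. Counts came from 4× images of lung cancer cell lines grown in 1536-well plates for 5 days after pin-tool dosing on the day after seeding. Dosing used one drug alone or a fixed anchor-drug dose plus five library-drug doses (not always all listed) in √10 steps, and values are medians of duplicate plates.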

Midostaurin + OSI-027 = compound: CO[C@@H]1[C@H](N(C)C(=O)c2ccccc2)C[C@H]2O[C@]1(C)n1c3ccccc3c3c4c(c5c6ccccc6n2c5c31)C(=O)NC4 [Midostaurin] + COc1cccc2cc(-c3nc([C@H]4CC[C@H](C(=O)O)CC4)n4ncnc(N)c34)[nH]c12 [OSI-027] (partner 0.5 µM)
In short: as §1

Midostaurin + Pictilisib = compound: CO[C@@H]1[C@H](N(C)C(=O)c2ccccc2)C[C@H]2O[C@]1(C)n1c3ccccc3c3c4c(c5c6ccccc6n2c5c31)C(=O)NC4 [Midostaurin] + CS(=O)(=O)N1CCN(Cc2cc3nc(-c4cccc5[nH]ncc45)nc(N4CCOCC4)c3s2)CC1 [Pictilisib] (partner 1 µM)
In short: as §1

Midostaurin + Olaparib = compound: CO[C@@H]1[C@H](N(C)C(=O)c2ccccc2)C[C@H]2O[C@]1(C)n1c3ccccc3c3c4c(c5c6ccccc6n2c5c31)C(=O)NC4 [Midostaurin] + O=C(c1cc(Cc2n[nH]c(=O)c3ccccc23)ccc1F)N1CCN(C(=O)C2CC2)CC1 [Olaparib] (partner 8 µM)
In short: as §1

[1] = compound: COc1cc(-c2nn([C@H]3CC[C@H](N4CCN(C(C)=O)CC4)CC3)c3ncnc(N)c23)ccc1NC(=O)c1cc2ccccc2n1C + NC(=O)Nc1cc(-c2cccc(F)c2)sc1C(=O)N[C@H]1CCCNC1 [AZD7762] (partner 0.2 µM)
In short: as §1

| Cell Line | relative viability (Midostaurin + Bortezomib; first compound 0.01 µM) | relative viability (Midostaurin + Bortezomib; first compound 0.03162 µM) | relative viability (Midostaurin + Bortezomib; first compound 0.1 µM) | relative viability (Midostaurin + Bortezomib; first compound 0.3162 µM) | relative viability (Midostaurin + OSI-027; first compound 0.01 µM) | relative viability (Midostaurin + OSI-027; first compound 0.03162 µM) | relative viability (Midostaurin + OSI-027; first compound 0.1 µM) | relative viability (Midostaurin + OSI-027; first compound 0.3162 µM) | relative viability (Midostaurin + Pictilisib; first compound 0.01 µM) | relative viability (Midostaurin + Pictilisib; first compound 0.03162 µM) | relative viability (Midostaurin + Pictilisib; first compound 0.1 µM) | relative viability (Midostaurin + Pictilisib; first compound 0.3162 µM) | relative viability (Midostaurin + Olaparib; first compound 0.01 µM) | relative viability (Midostaurin + Olaparib; first compound 0.03162 µM) | relative viability (Midostaurin + Olaparib; first compound 0.1 µM) | relative viability (Midostaurin + Olaparib; first compound 0.3162 µM) | relative viability ([1]; first compound 0.0128 µM) | relative viability ([1]; first compound 0.04048 µM) | relative viability ([1]; first compound 0.128 µM) | relative viability ([1]; first compound 1.28 µM) |
| --- | --- | --- | --- | --- | --- | --- | --- | --- | --- | --- | --- | --- | --- | --- | --- | --- | --- | --- | --- | --- |
| EKVX | 1.01 | 0.995 | 0.947 | 0.9 | 0.786 | 0.616 | 0.674 | 0.657 | 0.487 | 0.367 | 0.473 | 0.483 | 0.836 | 0.847 | 0.738 | 0.775 | 0.79 | 0.691 | 0.685 | 0.385 |
| EMC-BAC-2 | 1.08 | 0.998 | 1.04 | 1.1 | 0.346 | 0.31 | 0.336 | 0.218 | 0.559 | 0.454 | 0.494 | 0.475 | 0.459 | 0.497 | 0.411 | 0.374 | 1.13 | 1.28 | 1.09 | 1.09 |
| EPLC-272H | 0.921 | 0.927 | 1.05 | 1.11 | 0.301 |  | 0.289 | 0.305 | 0.338 | 0.305 | 0.295 | 0.298 | 0.659 | 0.729 | 0.658 | 0.372 | 0.253 | 0.207 | 0.215 | 0.142 |
| H3255 | 0.857 | 0.832 | 0.731 | 0.789 | 0.592 | 0.512 | 0.622 | 0.593 | 0.503 | 0.487 | 0.471 | 0.459 | 0.515 | 0.538 | 0.498 | 0.533 | 0.879 | 0.87 | 0.894 | 0.633 |
| HARA | 1.12 | 1.03 | 1.07 | 1.12 | 0.672 | 0.4 | 0.516 | 0.757 | 0.469 | 0.416 | 0.295 | 0.333 | 0.786 | 0.842 | 0.644 | 0.752 | 0.257 | 0.432 | 0.124 | 0.281 |
| HCC-15 | 1.04 | 0.946 | 0.999 | 1.08 | 0.758 | 0.624 | 0.698 | 0.717 | 0.785 | 0.705 | 0.762 | 0.823 | 0.747 | 0.734 | 0.678 | 0.641 | 1.46 | 1.24 | 1.21 | 1.28 |
| HCC-44 | 0.84 | 0.881 | 0.796 | 0.762 |  | 0.501 | 0.529 | 0.401 | 0.571 | 0.576 | 0.692 | 0.327 | 0.999 | 0.957 | 0.983 | 1 | 1.13 | 1.17 | 0.981 | 1.19 |
| HCC-78 | 0.431 | 0.45 | 0.474 | 0.328 | 0.432 | 0.332 | 0.381 | 0.299 | 0.216 | 0.216 | 0.229 | 0.19 | 0.836 | 0.753 | 0.677 | 0.511 | 0.52 | 0.851 | 0.52 | 0.331 |
| HCC-366 | 1.02 | 1.04 | 1.02 | 1.1 | 0.961 | 0.954 | 0.567 | 0.811 | 0.167 | 0.116 | 0.142 | 0.137 | 0.336 | 0.358 | 0.302 | 0.117 | 0.252 | 0.221 | 0.246 | 0.193 |
| HCC-827 | 0.984 | 0.951 | 0.992 | 1.07 | 0.719 | 0.708 | 0.821 | 0.8 | 1.03 | 1 | 1.16 | 1.25 | 0.582 | 0.628 | 0.589 | 0.654 | 0.211 | 0.212 | 0.199 | 0.138 |
| HOP-62 | 0.887 | 0.728 | 0.635 | 1.17 | 0.779 | 0.754 | 0.947 | 0.686 | 0.804 | 0.641 | 0.735 | 1.11 | 0.321 | 0.452 | 0.414 | 0.372 | 0.74 | 0.555 | 0.661 | 0.566 |
| LC-2-ad | 1.03 | 0.979 | 0.995 | 1 | 0.792 | 0.791 | 0.898 | 0.847 | 0.432 | 0.416 | 0.497 | 0.24 | 0.738 | 0.688 | 0.673 | 0.691 | 0.86 | 0.846 | 0.789 | 0.646 |
| LCLC-97TM1 | 0.475 |  | 0.419 | 0.595 | 0.439 | 0.404 | 0.434 | 0.557 | 0.199 |  | 0.163 | 0.313 | 0.52 | 0.374 | 0.32 | 0.464 | 0.377 | 0.165 | 0.283 | 0.194 |
| LCLC-103H | 1.07 | 0.924 | 1.02 | 1.1 | 0.506 | 0.417 | 0.425 | 0.465 | 0.72 | 0.541 | 0.6 | 0.648 | 0.746 | 0.813 | 0.717 | 0.805 | 0.828 | 0.787 | 0.759 | 0.703 |
| LOU-NH91 | 0.506 | 0.48 | 0.529 | 0.528 | 0.74 | 0.67 | 0.747 | 0.802 | 0.541 | 0.54 | 0.514 | 0.562 | 0.922 | 0.828 | 0.88 | 0.943 | 0.813 | 0.796 | 0.732 | 0.658 |
| LU99A | 1.08 | 1.17 | 1.1 | 0.998 | 0.279 | 0.309 | 0.258 | 0.277 | 0.299 | 0.316 | 0.302 | 0.245 | 0.261 | 0.295 | 0.257 | 0.207 | 0.327 | 0.404 | 0.352 | 0.35 |
| LXF-289 | 0.997 | 0.97 | 0.967 | 0.974 | 0.819 | 0.864 | 0.842 | 0.743 | 0.812 | 0.766 | 0.764 | 0.598 | 1.13 | 1.05 | 1.04 | 0.992 | 1.29 | 0.964 | 1.04 | 1.14 |
| NCI-H23 | 1.03 | 0.999 | 0.923 | 1.06 | 0.562 | 0.592 | 0.524 | 0.513 | 0.448 | 0.402 | 0.439 | 0.326 | 0.317 | 0.296 | 0.296 | 0.223 | 0.268 | 0.199 | 0.261 | 0.199 |
| NCI-H322M | 1.37 | 1.27 | 1.17 | 1.34 | 0.633 | 0.489 | 0.595 | 0.569 | 0.52 | 0.493 | 0.5 | 0.594 | 0.703 | 0.72 | 0.698 | 0.779 | 0.496 | 0.599 | 0.536 | 0.444 |
| NCI-H441 | 0.477 | 0.647 | 0.392 | 0.442 | 0.629 | 0.525 | 0.405 | 0.529 | 0.496 | 0.434 | 0.488 | 0.512 | 0.475 | 0.677 | 0.458 | 0.427 | 1.21 | 1.01 | 1.12 | 0.717 |
| NCI-H460 | 1.19 | 1.19 | 1.01 | 1.1 | 0.513 | 0.62 | 0.722 | 0.665 | 0.388 | 0.296 | 0.346 | 0.417 | 0.406 | 0.417 | 0.314 | 0.382 | 0.618 | 0.73 | 0.603 | 0.579 |
| NCI-H596 | 0.902 | 1.12 | 1.1 | 1.07 | 0.727 | 0.774 | 0.598 | 0.904 | 0.376 | 0.435 | 0.435 | 0.424 | 0.77 | 0.691 | 0.722 | 0.777 | 1.55 | 1.15 | 1.09 | 0.851 |
| NCI-H647 | 0.953 | 1.07 | 0.876 | 0.765 | 0.637 | 0.652 | 0.779 | 0.753 | 0.387 | 0.532 | 0.311 | 0.294 | 0.495 | 0.688 | 0.455 | 0.316 | 0.503 | 0.602 | 0.403 | 0.367 |
| NCI-H650 | 0.635 | 0.783 | 0.734 | 0.625 | 0.439 | 0.455 | 0.507 | 0.456 | 0.829 | 0.794 | 0.835 | 0.628 | 0.36 | 0.406 | 0.412 | 0.313 | 1.13 | 1.02 | 0.975 | 0.935 |
| NCI-H727 | 0.906 | 0.81 | 0.771 | 0.795 | 0.673 | 0.492 | 0.538 | 0.479 | 0.491 | 0.301 | 0.378 | 0.329 | 0.659 | 0.62 | 0.628 | 0.68 | 0.562 |  | 0.716 | 0.575 |
| NCI-H838 | 0.886 | 0.91 | 0.638 | 0.448 | 0.481 | 0.394 | 0.382 | 0.349 | 0.565 | 0.48 | 0.302 | 0.276 | 0.748 | 0.839 | 0.511 | 0.229 | 1 | 0.921 | 0.91 | 0.75 |
| NCI-H1355 | 1.13 | 1.16 | 1.31 | 1.26 | 0.431 | 0.425 | 0.39 | 0.492 | 0.415 | 0.381 | 0.401 | 0.526 | 0.777 | 0.78 | 0.77 | 0.68 | 0.75 | 0.788 | 0.654 | 0.619 |
